# Data reported in PubChem BioAssay AID256 (DTP/NCI, 2004).
# Values joined by “and” are separate entries in the source; they are usually repeats but may differ in a detail not shown here. Equal values may be shown once. Inconclusive results and toxic doses are left out.
# System: CD2F1 mice, L1210 leukemia ip, survival T/C
# Experiment: NCI In Vivo Anticancer Drug Screen. Data for tumor model L1210 Leukemia (intraperitoneal) in CD2F1 (CDF1) mice
# Conditions: higher = longer survival
# In short: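 Tumor-bearing mice (transplanted tumor) were split into treated and vehicle control groups, and the measured endpoint of each treated group was divided by that of its vehicle controls.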
smiles,measurement,setting,value
NC(C/[N+]([O-])=N/O)C(=O)O (configuration not stated),T/C,"endpoint: mean survival time, dose: 5.0 mg/kg/injection, schedule: Q01DX009 (ip), vehicle: alkali diluted with saline",100 % of control
same,T/C,"endpoint: mean survival time, dose: 7.5 mg/kg/injection, schedule: Q01DX005 (ip), vehicle: alkali diluted with saline",98 % of control
same,T/C,"endpoint: mean survival time, dose: 8.0 mg/kg/injection, schedule: Q03HX008 (ip), vehicle: saline",111 % of control
same,T/C,"endpoint: mean survival time, dose: 8.0 mg/kg/injection, schedule: Q03HX016 (ip), vehicle: saline",105 % of control
same,T/C,"endpoint: mean survival time, dose: 8.0 mg/kg/injection, schedule: Q03HX024 (ip), vehicle: saline",109 % of control
same,T/C,"endpoint: mean survival time, dose: 8.78 mg/kg/injection, schedule: Q01DX010 (ip), vehicle: alkali diluted with saline",121 % of control
same,T/C,"endpoint: mean survival time, dose: 9.38 mg/kg/injection, schedule: Q01DX009 (ip), vehicle: alkali diluted with saline",118 % of control
same,T/C,"endpoint: mean survival time, dose: 10.0 mg/kg/injection, schedule: Q01DX009 (ip), vehicle: alkali diluted with saline",101 % of control
same,T/C,"endpoint: mean survival time, dose: 13.2 mg/kg/injection, schedule: Q01DX010 (ip), vehicle: alkali diluted with saline",120 % of control
same,T/C,"endpoint: mean survival time, dose: 15.0 mg/kg/injection, schedule: Q01DX005 (ip), vehicle: alkali diluted with saline",113 % of control
same,T/C,"endpoint: mean survival time, dose: 16.0 mg/kg/injection, schedule: Q01DX009 (sc), vehicle: saline",97 % of control
same,T/C,"endpoint: mean survival time, dose: 16.0 mg/kg/injection, schedule: Q03HX008 (ip), vehicle: saline",112 % of control
same,T/C,"endpoint: mean survival time, dose: 16.0 mg/kg/injection, schedule: Q03HX016 (ip), vehicle: saline",104 % of control
same,T/C,"endpoint: mean survival time, dose: 16.0 mg/kg/injection, schedule: Q03HX024 (ip), vehicle: saline",112 % of control
same,T/C,"endpoint: mean survival time, dose: 18.75 mg/kg/injection, schedule: Q01DX009 (ip), vehicle: alkali diluted with saline",119 % of control
same,T/C,"endpoint: mean survival time, dose: 18.8 mg/kg/injection, schedule: Q01DX009 (ip), vehicle: alkali diluted with saline",102 % of control
same,T/C,"endpoint: mean survival time, dose: 19.8 mg/kg/injection, schedule: Q01DX010 (ip), vehicle: alkali diluted with saline",121 % of control
same,T/C,"endpoint: mean survival time, dose: 20.0 mg/kg/injection, schedule: Q01DX009 (ip), vehicle: alkali diluted with saline",105 % of control
same,T/C,"endpoint: mean survival time, dose: 28.12 mg/kg/injection, schedule: Q04DX003 (ip), vehicle: alkali diluted with saline",103 % of control
same,T/C,"endpoint: mean survival time, dose: 30.0 mg/kg/injection, schedule: Q01DX005 (ip), vehicle: alkali diluted with saline",122 % of control
same,T/C,"endpoint: mean survival time, dose: 32.0 mg/kg/injection, schedule: Q01DX009 (ip), vehicle: saline",123 % of control
same,T/C,"endpoint: mean survival time, dose: 32.0 mg/kg/injection, schedule: Q01DX009 (sc), vehicle: saline",103 % of control
same,T/C,"endpoint: mean survival time, dose: 32.0 mg/kg/injection, schedule: Q03HX008 (ip), vehicle: saline",108 % of control
same,T/C,"endpoint: mean survival time, dose: 32.0 mg/kg/injection, schedule: Q03HX016 (ip), vehicle: saline",113 % of control
same,T/C,"endpoint: mean survival time, dose: 37.5 mg/kg/injection, schedule: Q01DX009 (ip), vehicle: alkali diluted with saline",120 % of control and 124 % of control
same,T/C,"endpoint: mean survival time, dose: 40.0 mg/kg/injection, schedule: Q01DX009 (ip), vehicle: alkali diluted with saline",120 % of control
same,T/C,"endpoint: mean survival time, dose: 56.25 mg/kg/injection, schedule: Q04DX003 (ip), vehicle: alkali diluted with saline",116 % of control and 103 % of control
same,T/C,"endpoint: mean survival time, dose: 64.0 mg/kg/injection, schedule: Q01DX001 (ip), vehicle: saline",111 % of control
same,T/C,"endpoint: mean survival time, dose: 64.0 mg/kg/injection, schedule: Q01DX009 (oral), vehicle: saline",96 % of control
same,T/C,"endpoint: mean survival time, dose: 64.0 mg/kg/injection, schedule: Q01DX009 (sc), vehicle: saline",111 % of control
same,T/C,"endpoint: mean survival time, dose: 64.0 mg/kg/injection, schedule: Q03HX008 (ip), vehicle: saline",116 % of control
same,T/C,"endpoint: mean survival time, dose: 64.0 mg/kg/injection, schedule: Q03HX016 (ip), vehicle: saline",116 % of control
same,T/C,"endpoint: mean survival time, dose: 64.0 mg/kg/injection, schedule: Q04DX003 (ip), vehicle: saline",116 % of control
same,T/C,"endpoint: mean survival time, dose: 64.0 mg/kg/injection, schedule: Q04DX003 (oral), vehicle: saline",98 % of control
same,T/C,"endpoint: mean survival time, dose: 64.0 mg/kg/injection, schedule: Q04DX003 (sc), vehicle: saline",96 % of control
same,T/C,"endpoint: mean survival time, dose: 64.0 mg/kg/injection, schedule: Q08DX002 (ip), vehicle: saline",109 % of control
same,T/C,"endpoint: mean survival time, dose: 112.5 mg/kg/injection, schedule: Q04DX003 (ip), vehicle: alkali diluted with saline",123 % of control
same,T/C,"endpoint: mean survival time, dose: 128.0 mg/kg/injection, schedule: Q01DX001 (ip), vehicle: saline",113 % of control
same,T/C,"endpoint: mean survival time, dose: 128.0 mg/kg/injection, schedule: Q01DX009 (ip), vehicle: saline",95 % of control
same,T/C,"endpoint: mean survival time, dose: 128.0 mg/kg/injection, schedule: Q01DX009 (oral), vehicle: saline",91 % of control
same,T/C,"endpoint: mean survival time, dose: 128.0 mg/kg/injection, schedule: Q01DX009 (sc), vehicle: saline",104 % of control
same,T/C,"endpoint: mean survival time, dose: 128.0 mg/kg/injection, schedule: Q04DX003 (oral), vehicle: saline",102 % of control
same,T/C,"endpoint: mean survival time, dose: 128.0 mg/kg/injection, schedule: Q04DX003 (sc), vehicle: saline",105 % of control
same,T/C,"endpoint: mean survival time, dose: 128.0 mg/kg/injection, schedule: Q08DX002 (ip), vehicle: saline",112 % of control
same,T/C,"endpoint: mean survival time, dose: 150.0 mg/kg/injection, schedule: Q01DX009 (ip), vehicle: alkali diluted with saline",102 % of control
same,T/C,"endpoint: mean survival time, dose: 256.0 mg/kg/injection, schedule: Q01DX001 (ip), vehicle: saline",123 % of control
same,T/C,"endpoint: mean survival time, dose: 256.0 mg/kg/injection, schedule: Q04DX003 (ip), vehicle: saline",119 % of control
same,T/C,"endpoint: mean survival time, dose: 256.0 mg/kg/injection, schedule: Q04DX003 (oral), vehicle: saline",116 % of control
same,T/C,"endpoint: mean survival time, dose: 256.0 mg/kg/injection, schedule: Q04DX003 (sc), vehicle: saline",122 % of control
same,T/C,"endpoint: mean survival time, dose: 512.0 mg/kg/injection, schedule: Q04DX003 (ip), vehicle: saline",170 % of control
same,T/C,"endpoint: mean survival time, dose: 512.0 mg/kg/injection, schedule: Q04DX003 (sc), vehicle: saline",155 % of control
same,T/C,"endpoint: mean survival time, dose: 1024.0 mg/kg/injection, schedule: Q04DX003 (ip), vehicle: saline",90 % of control
same,T/C,"endpoint: mean survival time, dose: 1024.0 mg/kg/injection, schedule: Q04DX003 (oral), vehicle: saline",119 % of control
same,T/C,"endpoint: mean survival time, dose: 1024.0 mg/kg/injection, schedule: Q04DX003 (sc), vehicle: saline",89 % of control
same,T/C,"endpoint: mean survival time, dose: 1024.0 mg/kg/injection, schedule: Q08DX002 (ip), vehicle: saline",118 % of control
same,T/C,"endpoint: median survival time, dose: 0.78 mg/kg/injection, schedule: Q01DX009 (ip), vehicle: water",100 % of control
same,T/C,"endpoint: median survival time, dose: 0.78 mg/kg/injection, schedule: Q04DX003 (ip), vehicle: water",100 % of control
same,T/C,"endpoint: median survival time, dose: 1.57 mg/kg/injection, schedule: Q01DX009 (ip), vehicle: water",95 % of control and 100 % of control
same,T/C,"endpoint: median survival time, dose: 1.57 mg/kg/injection, schedule: Q04DX003 (ip), vehicle: water",95 % of control
same,T/C,"endpoint: median survival time, dose: 3.13 mg/kg/injection, schedule: Q01DX009 (ip), vehicle: water",100 % of control
same,T/C,"endpoint: median survival time, dose: 3.13 mg/kg/injection, schedule: Q04DX003 (ip), vehicle: water",95 % of control and 100 % of control
same,T/C,"endpoint: median survival time, dose: 6.25 mg/kg/injection, schedule: Q01DX009 (ip), vehicle: water",110 % of control
same,T/C,"endpoint: median survival time, dose: 6.25 mg/kg/injection, schedule: Q04DX003 (ip), vehicle: water",90 % of control and 95 % of control
same,T/C,"endpoint: median survival time, dose: 12.5 mg/kg/injection, schedule: Q01DX009 (ip), vehicle: water",105 % of control
same,T/C,"endpoint: median survival time, dose: 12.5 mg/kg/injection, schedule: Q04DX003 (ip), vehicle: water",90 % of control and 100 % of control
same,T/C,"endpoint: median survival time, dose: 13.0 mg/kg/injection, schedule: Q01DX009 (ip), vehicle: alkali diluted with saline",120 % of control
same,T/C,"endpoint: median survival time, dose: 16.2 mg/kg/injection, schedule: Q01DX009 (ip), vehicle: alkali diluted with saline",119 % of control
same,T/C,"endpoint: median survival time, dose: 21.6 mg/kg/injection, schedule: Q01DX009 (ip), vehicle: alkali diluted with saline",122 % of control
same,T/C,"endpoint: median survival time, dose: 25.0 mg/kg/injection, schedule: Q01DX009 (ip), vehicle: water",100 % of control
same,T/C,"endpoint: median survival time, dose: 25.0 mg/kg/injection, schedule: Q04DX003 (ip), vehicle: water",90 % of control and 105 % of control
same,T/C,"endpoint: median survival time, dose: 27.0 mg/kg/injection, schedule: Q01DX009 (ip), vehicle: alkali diluted with saline",124 % of control
same,T/C,"endpoint: median survival time, dose: 31.3 mg/kg/injection, schedule: Q01DX009 (ip), vehicle: water",122 % of control
same,T/C,"endpoint: median survival time, dose: 31.3 mg/kg/injection, schedule: Q04DX003 (ip), vehicle: water",116 % of control
same,T/C,"endpoint: median survival time, dose: 35.0 mg/kg/injection, schedule: Q04DX003 (ip), vehicle: alkali diluted with saline",120 % of control
same,T/C,"endpoint: median survival time, dose: 36.0 mg/kg/injection, schedule: Q01DX009 (ip), vehicle: alkali diluted with saline",120 % of control
same,T/C,"endpoint: median survival time, dose: 58.3 mg/kg/injection, schedule: Q04DX003 (ip), vehicle: alkali diluted with saline",120 % of control
same,T/C,"endpoint: median survival time, dose: 62.5 mg/kg/injection, schedule: Q01DX009 (ip), vehicle: water",122 % of control
same,T/C,"endpoint: median survival time, dose: 62.5 mg/kg/injection, schedule: Q04DX003 (ip), vehicle: water",122 % of control
same,T/C,"endpoint: median survival time, dose: 90.0 mg/kg/injection, schedule: Q01DX009 (ip), vehicle: alkali diluted with saline",158 % of control
same,T/C,"endpoint: median survival time, dose: 125.0 mg/kg/injection, schedule: Q01DX009 (ip), vehicle: alkali diluted with saline",114 % of control
same,T/C,"endpoint: median survival time, dose: 125.0 mg/kg/injection, schedule: Q01DX009 (ip), vehicle: water",88 % of control
same,T/C,"endpoint: median survival time, dose: 125.0 mg/kg/injection, schedule: Q04DX003 (ip), vehicle: water",122 % of control
same,T/C,"endpoint: median survival time, dose: 162.0 mg/kg/injection, schedule: Q04DX003 (ip), vehicle: alkali diluted with saline",151 % of control
same,T/C,"endpoint: median survival time, dose: 250.0 mg/kg/injection, schedule: Q04DX003 (ip), vehicle: water",155 % of control and 177 % of control
same,T/C,"endpoint: median survival time, dose: 270.0 mg/kg/injection, schedule: Q04DX003 (ip), vehicle: alkali diluted with saline",172 % of control
same,T/C,"endpoint: median survival time, dose: 450.0 mg/kg/injection, schedule: Q04DX003 (ip), vehicle: alkali diluted with saline",189 % of control
same,T/C,"endpoint: median survival time, dose: 500.0 mg/kg/injection, schedule: Q04DX003 (ip), vehicle: water",194 % of control
